Experimental data from publication PMC7143535, “Synthesis, Pharmacological and Structural Characterization of Novel Conopressins from Conus miliaris” (Marine Drugs, 2020).
Where two headings read alike, the source gives them in different places. Residues, ends and D or L forms follow the SMILES beside them.

Experiments:
[1] = target: T1, human vasopressin-1a receptor (hV1aR) (Homo sapiens, UniProt P37288); test: cell-based
T1 construct: host or cells: COS-1

[2] = target: T2, human vasopressin-1b receptor (hV1bR) (Homo sapiens, UniProt P47901); test: cell-based; assay type: cell-based
T2 construct: host or cells: COS-1
T2 sequence (P47901 1-424): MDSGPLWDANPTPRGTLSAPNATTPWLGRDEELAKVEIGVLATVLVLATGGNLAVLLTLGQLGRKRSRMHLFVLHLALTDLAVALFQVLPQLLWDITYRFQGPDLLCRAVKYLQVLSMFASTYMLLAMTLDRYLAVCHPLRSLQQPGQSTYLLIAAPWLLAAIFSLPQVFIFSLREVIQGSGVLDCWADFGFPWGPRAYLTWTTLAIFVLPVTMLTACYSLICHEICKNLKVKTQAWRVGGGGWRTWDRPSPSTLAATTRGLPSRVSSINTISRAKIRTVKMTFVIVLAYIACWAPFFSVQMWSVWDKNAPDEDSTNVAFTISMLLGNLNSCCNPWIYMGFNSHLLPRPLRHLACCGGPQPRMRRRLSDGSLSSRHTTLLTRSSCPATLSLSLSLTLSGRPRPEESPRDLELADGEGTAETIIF

[3] = target: T3, human vasopressin2 receptor (hV2R) (Homo sapiens, UniProt P30518); test: cell-based
T3 construct: host or cells: COS-1
T3 sequence (P30518 whole entry): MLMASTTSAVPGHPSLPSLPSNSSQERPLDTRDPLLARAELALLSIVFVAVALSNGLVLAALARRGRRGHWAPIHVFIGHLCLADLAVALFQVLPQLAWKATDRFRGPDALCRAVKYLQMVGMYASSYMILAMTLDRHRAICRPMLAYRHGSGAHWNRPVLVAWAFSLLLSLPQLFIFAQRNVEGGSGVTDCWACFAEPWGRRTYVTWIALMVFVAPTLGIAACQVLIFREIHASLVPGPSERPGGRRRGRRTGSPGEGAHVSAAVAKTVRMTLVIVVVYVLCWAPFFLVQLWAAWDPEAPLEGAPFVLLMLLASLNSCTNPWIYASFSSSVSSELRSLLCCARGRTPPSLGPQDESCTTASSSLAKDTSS

[4] = target: zebrafish vasopressin1-a1 receptor (ZF V1a1R); assay type: cell-based, zebrafish (Danio rerio)
[5] = target: T4, human oxytocin receptor (hOTR) (Homo sapiens, UniProt P30559); test: cell-based; assay type: cell-based
T4 construct: host or cells: COS-1
T4 sequence (P30559 1-389): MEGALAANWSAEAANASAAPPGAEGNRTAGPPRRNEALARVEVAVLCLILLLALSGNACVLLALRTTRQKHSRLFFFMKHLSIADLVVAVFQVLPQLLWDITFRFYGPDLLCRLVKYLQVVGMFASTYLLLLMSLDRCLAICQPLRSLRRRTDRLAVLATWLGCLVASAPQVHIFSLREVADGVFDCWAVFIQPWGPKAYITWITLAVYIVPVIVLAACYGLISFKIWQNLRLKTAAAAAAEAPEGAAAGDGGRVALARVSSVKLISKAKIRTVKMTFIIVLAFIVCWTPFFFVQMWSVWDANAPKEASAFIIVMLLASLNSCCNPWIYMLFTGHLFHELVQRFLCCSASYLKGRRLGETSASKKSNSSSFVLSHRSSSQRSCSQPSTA

[6] = target: T5, zebrafish oxytocin/isotocin receptor (ZF oxy/isoR) (Danio rerio, UniProt E4W699); test: cell-based; assay type: cell-based
T5 construct: host or cells: COS-1
T5 sequence (E4W699 1-388): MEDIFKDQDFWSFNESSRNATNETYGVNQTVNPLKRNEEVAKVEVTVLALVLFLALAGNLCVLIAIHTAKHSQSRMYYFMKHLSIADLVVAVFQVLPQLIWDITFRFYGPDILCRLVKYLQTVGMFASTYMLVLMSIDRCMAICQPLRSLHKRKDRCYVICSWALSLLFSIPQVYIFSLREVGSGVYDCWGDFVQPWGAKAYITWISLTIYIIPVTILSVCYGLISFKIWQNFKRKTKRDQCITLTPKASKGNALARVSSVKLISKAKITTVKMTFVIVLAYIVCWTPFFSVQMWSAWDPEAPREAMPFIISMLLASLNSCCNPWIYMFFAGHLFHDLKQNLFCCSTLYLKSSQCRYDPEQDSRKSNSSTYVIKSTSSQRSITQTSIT

[7] = target: zebrafish vasopressin1-a2 receptor (ZF V1a2R); assay type: cell-based, zebrafish (Danio rerio)
[8] = tested on: zebrafish vasopressin2 receptor (ZF V2R); assay type: cell-based, zebrafish (Danio rerio)

T1 sequence (P37288 whole entry): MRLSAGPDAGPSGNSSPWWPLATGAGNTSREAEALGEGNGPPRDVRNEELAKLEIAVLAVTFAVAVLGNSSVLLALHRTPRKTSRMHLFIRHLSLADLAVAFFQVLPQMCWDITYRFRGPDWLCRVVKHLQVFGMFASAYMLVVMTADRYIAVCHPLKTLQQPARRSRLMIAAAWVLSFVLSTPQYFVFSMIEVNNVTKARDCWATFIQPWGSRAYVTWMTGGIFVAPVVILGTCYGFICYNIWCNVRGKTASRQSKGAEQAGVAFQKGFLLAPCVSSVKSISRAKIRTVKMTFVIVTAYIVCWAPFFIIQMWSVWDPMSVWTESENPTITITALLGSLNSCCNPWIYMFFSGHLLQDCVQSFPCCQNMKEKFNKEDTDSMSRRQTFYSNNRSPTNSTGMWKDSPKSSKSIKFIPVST

## CC[C@H](C)[C@@H]1NC(=O)[C@H](Cc2ccc(O)cc2)NC(=O)[C@@H](N)CSSC[C@@H](C(=O)N2CCC[C@H]2C(=O)N[C@@H](CCCNC(=N)N)C(=O)NCC(N)=O)NC(=O)[C@H](CC(N)=O)NC(=O)[C@H](CCC(N)=O)NC1=O [Vasotocin, vasotocin] (HELM PEPTIDE1{C.Y.I.Q.N.C.P.R.G.[am]}$PEPTIDE1,PEPTIDE1,1:R3-6:R3$$$V2.0; N-terminus assumed)
[1]
  EC50: 15.9 nM
[2]
  EC50: 4.26 nM
  Selectivity hV1bR: hV2R (x28945.5) > ZF V1a1R (x38.8) > ZF oxy (x18.7) > hOTR(x9.8) > ZF V1a2R (x5.7) > hV1bR (x3.7) > ZF V2R (x3.1) > hV1aR
[3]
  EC50: 0.5 nM
  Selectivity hV2R: hV2R (x28945.5) > ZF V1a1R (x38.8) > ZF oxy (x18.7) > hOTR(x9.8) > ZF V1a2R (x5.7) > hV1bR (x3.7) > ZF V2R (x3.1) > hV1aR
  fold more potent on hV2R than on ZF V2R: ~10,000 fold
[4]
  EC50: 0.41 nM
  Selectivity ZF V1a1R: hV2R (x28945.5) > ZF V1a1R (x38.8) > ZF oxy (x18.7) > hOTR(x9.8) > ZF V1a2R (x5.7) > hV1bR (x3.7) > ZF V2R (x3.1) > hV1aR
[5]
  EC50: 1.62 nM
  Selectivity hOTR: hV2R (x28945.5) > ZF V1a1R (x38.8) > ZF oxy (x18.7) > hOTR(x9.8) > ZF V1a2R (x5.7) > hV1bR (x3.7) > ZF V2R (x3.1) > hV1aR
[6]
  EC50: 0.85 nM
  Selectivity ZF oxy: hV2R (x28945.5) > ZF V1a1R (x38.8) > ZF oxy (x18.7) > hOTR(x9.8) > ZF V1a2R (x5.7) > hV1bR (x3.7) > ZF V2R (x3.1) > hV1aR
[7]
  EC50: 2.77 nM
  Selectivity ZF V1a2R: hV2R (x28945.5) > ZF V1a1R (x38.8) > ZF oxy (x18.7) > hOTR(x9.8) > ZF V1a2R (x5.7) > hV1bR (x3.7) > ZF V2R (x3.1) > hV1aR
[8]
  Selectivity ZF V2R: hV2R (x28945.5) > ZF V1a1R (x38.8) > ZF oxy (x18.7) > hOTR(x9.8) > ZF V1a2R (x5.7) > hV1bR (x3.7) > ZF V2R (x3.1) > hV1aR
[8]; read-out: EC50 / affinity at ZF V2R
  EC50: 5000 nM
[8]; read-out: Mean EC50 ZF V2R
  EC50: 5.07 nM
